# Experimental data from patent EP4810038A1, “METHOD FOR TREATING ALK-POSITIVE OR ROS1-POSITIVE NON-SMALL CELL LUNG CANCER” (Shenzhen TargetRx Co., Ltd., priority 2023, dated 2025).
# System: ALK-positive or ROS1-positive advanced non-small cell lung cancer
# Assay: Phase I clinical trial, dose escalation and expansion phases: efficacy (RECIST 1.1)
# Format: in vivo, human
# Details: systemic
# Experimental: The anti-tumor efficacy is evaluated according to RECIST version 1.1. For patients initially evaluated as having a complete response (CR) or partial response (PR), efficacy should be confirmed at least 4 weeks later. In the patients with asymptomatic central nervous system (CNS) metastases, in addition to evaluating 5 extracranial target lesions, up to 5 intracranial target lesions will also be evaluated. The specific indicators are as follows:
# "CR" is defined as the disappearance of all target lesions, and the diameters of the short axis of all the pathological lymph nodes (whether target or non-target lymph nodes) must be reduced to 10 mm or less.
# "PR" is defined as a reduction of at least 30% in the total diameter of the target lesions, with the total diameter of the baseline as a reference value.
# "PD" is defined as an increase of at least 20% in the total diameter of the target lesions, using the minimum total diameter in the study as a reference value (this value may include the total diameter of the baseline). In addition, the absolute value of the total diameter must increase by at least 5 mm (the appearance of one or more new lesions is also considered as progressive disease).
# "SD" is defined as a state in which the reduction in target lesions is insufficient to achieve partial response and the increase is insufficient to achieve progressive disease.
# "ORR" includes CR and PR, and is defined as the proportion of patients who achieve complete response or partial response.
# "IC-ORR" includes CR or PR for confirmed intracranial lesions, and is defined as the proportion of the patients with complete response or partial response of intracranial lesions among the patients with intracranial lesions.
# "DCR" is defined as the proportion of the patients who achieve response (PR+CR) and stable disease (SD) after a treatment.
# "IC-DCR" is defined as the proportion of the patients who achieve intracranial response (PR+CR), intracranial stable disease (SD), and […] after a treatment among the patients with intracranial lesions.
# "DOR" is defined as the time from the first assessment of CR or PR to progressive disease or death, and is only applicable to the patients who achieve response.
# "IC-DOR" is defined as the time from the first assessment of intracranial CR or intracranial PR to progressive disease or death, and is only applicable to the patients whose intracranial lesions achieve response.
# "TTR" is defined as the time from patient enrollment (first dose of investigational drug) to tumor response (CR/PR), based on the patients with objective response.
# "IC-TTR" is defined as the time from patient enrollment (first dose of investigational drug) to intracranial tumor response (IC-CR/PR), based on the patients with intracranial objective response.
# Approximately eight dose groups in total were set in the dose escalation phase, which were 5 (the starting dose), 10, 20, 40, 60, 80, 100, and 125 mg, respectively. Subjects in all the dose groups received a single dose on day 1 (D1), and the blood samples were collected for pharmacokinetic (PK) assay and tolerability observation. If no grade 2 or a higher-level adverse event related to the investigational drug occurred during the single-dose period (5 to 7 days) (if such events occurred, dose adjustments would be made based on the toxicity according to the protocol), the subject entered the multiple-dose period (i.e., treatment period) 5 to 7 days later (7 days after the first administration in the first dose group (i.e., starting the multiple-dose treatment on day 8), and the intervals for the subsequent dose groups were determined based on the obtained tolerability and PK data). […]
structure (smiles),measurement,setting,value
"[2H]C([2H])([2H])n1nc2c(c1C#N)-c1cnc(N)c(c1)O[C@H](C)c1cc(F)ccc1C(=O)N(C)C2 [compound A, (10R)-7-amino-12-fluoro-2-(methyl-d3)-10,16-dimethyl-15-oxo-10,15,16,17-tetrahydro-2H-8,4-(metheno)pyrazolo[4,3-h][2,5,11]benzoxadiazacyclotetradecine-3-carbonitrile]",DCR (95% CI),5mg (N=1),"1 (100) (2.5, 100.0) n (%)"
same,BOR CR,10mg (N=1),0 n (%)
same,BOR NE,10mg (N=1),0 n (%)
same,BOR PD,10mg (N=1),0 n (%)
same,BOR PR,10mg (N=1),0 n (%)
same,BOR SD,10mg (N=1),1 (100) n (%)
same,Confirmed ORR (95% CI),10mg (N=1),"0 (0.0, 97.5) n (%)"
same,DCR (95% CI),10mg (N=1),"1 (100) (2.5, 100.0) n (%)"
same,BOR CR,20mg (N=1),0 n (%)
same,BOR NE,20mg (N=1),0 n (%)
same,BOR PD,20mg (N=1),0 n (%)
same,BOR PR,20mg (N=1),1 (100) n (%)
same,BOR SD,20mg (N=1),0 n (%)
same,Confirmed ORR (95% CI),20mg (N=1),"1 (100) (2.5, 100.0) n (%)"
same,DCR (95% CI),20mg (N=1),"1 (100) (2.5, 100.0) n (%)"
same,Median DOR (95% CI),20mg (N=1),"6.93 (-, -) months"
same,Median TTR (range),20mg (N=1),"1.35 (1.35, 1.35) months"
same,BOR CR,40mg (N=10),0 n (%)
same,BOR NE,40mg (N=10),2 (20.0) n (%)
same,BOR PD,40mg (N=10),2 (20.0) n (%)
same,BOR PR,40mg (N=10),1 (10.0) n (%)
same,BOR SD,40mg (N=10),5 (50.0) n (%)
same,Confirmed ORR (95% CI),40mg (N=10),"1 (10.0) (0.3, 44.5) n (%)"
same,DCR (95% CI),40mg (N=10),"6 (60.0) (26.2, 87.8) n (%)"
same,Median TTR (range),40mg (N=10),"2.73 (2.73, 2.73) months"
same,BOR CR,60mg (N=12),0 n (%)
same,BOR NE,60mg (N=12),0 n (%)
same,BOR PD,60mg (N=12),1 (8.3) n (%)
same,BOR PR,60mg (N=12),6 (50.0) n (%)
same,BOR SD,60mg (N=12),5 (41.7) n (%)
same,Confirmed ORR (95% CI),60mg (N=12),"6 (50.0) (21.1, 78.9) n (%)"
same,DCR (95% CI),60mg (N=12),"11 (91.7) (61.5, 99.8) n (%)"
same,Median DOR (95% CI),60mg (N=12),"12.45 (2.79, -) months"
same,Median TTR (range),60mg (N=12),"1.35 (1.35, 6.90) months"
same,BOR CR,80mg (N=11),0 n (%)
same,BOR NE,80mg (N=11),1 (9.1) n (%)
same,BOR PD,80mg (N=11),1 (9.1) n (%)
same,BOR PR,80mg (N=11),4 (36.4) n (%)
same,BOR SD,80mg (N=11),5 (45.5) n (%)
same,Confirmed ORR (95% CI),80mg (N=11),"4 (36.4) (10.9, 69.2) n (%)"
same,DCR (95% CI),80mg (N=11),"9 (81.8) (48.2, 97.7) n (%)"
same,Median DOR (95% CI),80mg (N=11),"12.48 (7.98, -) months"
same,Median TTR (range),80mg (N=11),"1.45 (1.35, 13.96) months"
same,BOR CR,100mg (N=3),0 n (%)
same,BOR NE,100mg (N=3),0 n (%)
same,BOR PD,100mg (N=3),0 n (%)
same,BOR PR,100mg (N=3),2 (66.7) n (%)
same,BOR SD,100mg (N=3),1 (33.3) n (%)
same,Confirmed ORR (95% CI),100mg (N=3),"2 (66.7) (9.4, 99.2) n (%)"
same,DCR (95% CI),100mg (N=3),"3 (100) (29.2, 100.0) n (%)"
same,Median DOR (95% CI),100mg (N=3),"5.57 (4.17, -) months"
same,Median TTR (range),100mg (N=3),"2.05 (1.35, 2.76) months"
same,BOR CR,125mg (N=3),0 n (%)
same,BOR NE,125mg (N=3),0 n (%)
same,BOR PD,125mg (N=3),1 (33.3) n (%)
same,BOR PR,125mg (N=3),1 (33.3) n (%)
same,BOR SD,125mg (N=3),1 (33.3) n (%)
same,Confirmed ORR (95% CI),125mg (N=3),"1 (33.3) (0.8, 90.6) n (%)"
same,DCR (95% CI),125mg (N=3),"2 (66.7) (9.4, 99.2) n (%)"
same,Median DOR (95% CI),125mg (N=3),"9.53 (-, -) months"
same,Median TTR (range),125mg (N=3),"1.38 (1.38, 1.38) months"
